Results: BigSolDB 2.1

O=C(O)c1cc(O)c(O)c(O)c1
in water
Conditions	solubility (mole fraction)
292.18 K	0.00098
298 K	0.0011
303.09 K	0.00142
308.21 K	0.0019
313.04 K	0.00244
318.15 K	0.00328
323.15 K	0.00427
327.85 K	0.00523
333.15 K	0.00693

COc1ccc(C(=O)O)cc1OC
Conditions	solubility (mole fraction)
in 2-butanone, 278.95 K	0.0068
in 2-butanone, 283.15 K	0.0077
in 2-butanone, 287.95 K	0.0089
in 2-butanone, 293.32 K	0.0104
in 2-butanone, 298.13 K	0.012
in 2-butanone, 303.15 K	0.014
in 2-butanone, 308.37 K	0.0162
in 2-butanone, 313.05 K	0.0184
in 2-butanone, 318.15 K	0.0212
in 2-butanone, 323.49 K	0.0246
in ethanol, 278.15 K	0.0035
in ethanol, 282.93 K	0.0042
in ethanol, 288.21 K	0.0051
in ethanol, 293.08 K	0.0062
in ethanol, 298 K	0.0074
in ethanol, 303.33 K	0.0093
in ethanol, 307.9 K	0.011
in ethanol, 313.3 K	0.0136
in ethanol, 317.15 K	0.0161
in ethanol, 323.3 K	0.0203
in ethyl acetate, 278.3 K	0.0037
in ethyl acetate, 283.01 K	0.0044
in ethyl acetate, 288.05 K	0.0052
in ethyl acetate, 293.15 K	0.0061
in ethyl acetate, 298 K	0.0072
in ethyl acetate, 303.13 K	0.0083
in ethyl acetate, 308.07 K	0.0099
in ethyl acetate, 313.15 K	0.0116
in ethyl acetate, 318.06 K	0.0133
in ethyl acetate, 323.37 K	0.0157
in isobutanol, 277.9 K	0.0015
in isobutanol, 283.25 K	0.002
in isobutanol, 288.15 K	0.0026
in isobutanol, 293.04 K	0.0032
in isobutanol, 298.15 K	0.0041
in isobutanol, 302.94 K	0.0052
in isobutanol, 308.1 K	0.0066
in isobutanol, 313.15 K	0.0083
in isobutanol, 318.01 K	0.0105
in isobutanol, 323.33 K	0.0132
in isopropanol, 278.37 K	0.0024
in isopropanol, 283.05 K	0.003
in isopropanol, 288.39 K	0.0039
in isopropanol, 294.07 K	0.0051
in isopropanol, 299 K	0.0063
in isopropanol, 303.17 K	0.0074
in isopropanol, 308.27 K	0.0095
in isopropanol, 313.13 K	0.0118
in isopropanol, 318.15 K	0.015
in isopropanol, 323.2 K	0.0183
in methyl acetate, 278.3 K	0.0042
in methyl acetate, 283.01 K	0.0049
in methyl acetate, 288.05 K	0.0058
in methyl acetate, 293.15 K	0.0068
in methyl acetate, 298 K	0.008
in methyl acetate, 303.13 K	0.0095
in methyl acetate, 308.07 K	0.0111
in methyl acetate, 313.15 K	0.0131
in methyl acetate, 318.06 K	0.0152
in methyl acetate, 323.37 K	0.0177
in n-butanol, 277.9 K	0.0025
in n-butanol, 283.25 K	0.003
in n-butanol, 288.15 K	0.0037
in n-butanol, 293.04 K	0.0046
in n-butanol, 298.15 K	0.0057
in n-butanol, 302.94 K	0.007
in n-butanol, 308.1 K	0.0089
in n-butanol, 313.15 K	0.011
in n-butanol, 318.01 K	0.0134
in n-butanol, 323.33 K	0.0168
in n-propanol, 278.37 K	0.0027
in n-propanol, 283.05 K	0.0033
in n-propanol, 288.39 K	0.0042
in n-propanol, 293.3 K	0.0051
in n-propanol, 299 K	0.0066
in n-propanol, 303.17 K	0.0079
in n-propanol, 308.27 K	0.0097
in n-propanol, 313.13 K	0.0118
in n-propanol, 318.15 K	0.0146
in n-propanol, 323.2 K	0.0177
